Source: ChEMBL document CHEMBL1128910, “Time-dependent inactivation of steroid C17(20) lyase by 17-cyclopropyl ether-substituted steroids” (Bioorg Med Chem Lett, 1996)

Key:
[1] = target: T1, Steroid 17-alpha-hydroxylase/17,20 lyase (Homo sapiens, UniProt P05093); test: Inhibition of cynomolgus monkey Cytochrome P450 steroid 17-alpha-hydroxylase/17,20 lyase at 0.1 uM pre-incubation time of 40 minutes
T1 sequence (P05093 whole entry): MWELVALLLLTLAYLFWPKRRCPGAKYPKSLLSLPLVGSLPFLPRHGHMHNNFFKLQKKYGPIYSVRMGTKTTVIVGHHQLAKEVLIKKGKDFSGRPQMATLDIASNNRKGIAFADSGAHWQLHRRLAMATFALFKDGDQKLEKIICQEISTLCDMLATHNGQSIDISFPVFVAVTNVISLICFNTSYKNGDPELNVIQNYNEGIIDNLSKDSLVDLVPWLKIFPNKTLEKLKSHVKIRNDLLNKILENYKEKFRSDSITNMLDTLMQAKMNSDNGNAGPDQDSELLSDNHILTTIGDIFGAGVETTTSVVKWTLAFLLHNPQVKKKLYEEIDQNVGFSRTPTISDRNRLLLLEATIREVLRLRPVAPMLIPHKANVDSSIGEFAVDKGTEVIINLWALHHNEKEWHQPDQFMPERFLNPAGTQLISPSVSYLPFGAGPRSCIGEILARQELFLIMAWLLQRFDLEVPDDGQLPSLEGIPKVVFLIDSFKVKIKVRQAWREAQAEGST

[2] = target: T1, Steroid 17-alpha-hydroxylase/17,20 lyase; test: Inhibition of cynomolgus monkey Cytochrome P450 steroid 17-alpha-hydroxylase/17,20 lyase at 1 uM
[3] = target: T1, Steroid 17-alpha-hydroxylase/17,20 lyase; test: Inhibition of cynomolgus monkey Cytochrome P450 steroid 17-alpha-hydroxylase/17,20 lyase at 1 uM preincubation time 40 minutes
[4] = target: T1, Steroid 17-alpha-hydroxylase/17,20 lyase; test: Inhibition of cynomolgus monkey Cytochrome P450 steroid 17-alpha-hydroxylase/17,20 lyase at 0.1 uM
[5] = target: T1, Steroid 17-alpha-hydroxylase/17,20 lyase; test: Inhibition of human Cytochrome P450 steroid 17-alpha-hydroxylase/17,20 lyase at 0.8 uM
[6] = target: T1, Steroid 17-alpha-hydroxylase/17,20 lyase; test: Inhibition of human Cytochrome P450 steroid 17-alpha-hydroxylase/17,20 lyase at 0.8 uM pre-incubation time 30 minutes

How did the inhibition at 0.1 µM [1] turn out when C[C@]12CCC(=O)C=C1CCC1C2CC[C@@]2(C)C1CC[C@@H]2OC1CC1 (stereo partly specified) was run?
The inhibition at 0.1 µM was 55%.

What about the inhibition at 1 µM [2] of the same compound?
The inhibition at 1 µM was 73%.

And the inhibition at 1 µM [3]?
The inhibition at 1 µM was 90%.

What about the inhibition at 0.1 µM [4] of the same compound?
The inhibition at 0.1 µM was 26%.

How did the inhibition at 0.8 µM [5] turn out when CC1(C)C2=CCC3C(CC[C@@]4(C)C3CC[C@@H]4OC3CC3)[C@@]2(C)CC[C@@H]1O (stereo partly specified) was run?
Its inhibition at 0.8 µM is 0%.

And the inhibition at 0.8 µM [6]?
The inhibition at 0.8 µM was 0%.

For C[C@]12CCC3C(CC=C4C[C@@H](O)[C@H]5COC[C@]43C5)C1CC[C@@H]2OC1CC1 (stereo partly specified), which inhibition at 0.8 µM [5] is on record?
The inhibition at 0.8 µM was 0%.

What about the inhibition at 0.8 µM [6] of the same compound?
Its inhibition at 0.8 µM is 0%.

For C[C@]12CCC3C(CCC4=CC(=O)[C@H]5COC[C@]43C5)C1CC[C@@H]2OC1CC1 (stereo partly specified), which inhibition at 0.8 µM [5] is on record?
Its inhibition at 0.8 µM is 1%.

And the inhibition at 0.8 µM [6]?
Its inhibition at 0.8 µM is 17%.

Which results are given for C[C@]12CCC(=O)C=C1C(=O)CC1C2CC[C@@]2(C)C1CC[C@@H]2OC1CC1 (stereo partly specified)?
inhibition at 0.1 µM [1]: 51%; inhibition at 1 µM [2]: 52%; inhibition at 1 µM [3]: 79%; inhibition at 0.1 µM [4]: 17%

Which inhibition at 0.8 µM [5] does the source give for C[C@]12CC[C@H](O)CC1=CCC1C2CC[C@@]2(C)C1CC[C@@H]2OC1CC1 (stereo partly specified) here?
The inhibition at 0.8 µM was 11%.

What about the inhibition at 0.8 µM [6] of the same compound?
The inhibition at 0.8 µM was 64%.
